melting point [°C]	Structure (SMILES)
173 to 175	CCN1C(=O)C(C(=O)Nc2cccc(C(=O)Nc3ccccc3)c2)c2cc(C(C)=O)ccc21 (stereo not drawn) [Example 1, 5-Acetyl-1-ethyl-2-oxo-2,3-dihydro-1H-indole-3-carboxylic acid (3-phenylcarbamoyl-phenyl)-amide]
205 to 210	CCN1C(=O)C(C(=O)Nc2cccc(C(=O)Nc3ccc(I)cc3)c2)c2cc(C(C)=O)ccc21 (stereo not drawn) [Example 9, 5-Acetyl-1-ethyl-2-oxo-2,3-dihydro-1H-indole-3-carboxylic acid [3-(4-iodo-phenylcarbamoyl)-phenyl]-amide]
178 to 179	CC(=O)c1ccc2c(c1)C(C(=O)Nc1cccc(C(=O)Nc3ccccc3)c1)C(=O)N2C (stereo not drawn) [Example 12, 5-Acetyl-1-methyl-2-oxo-2,3-dihydro-1H-indole-3-carboxylic acid (3-phenylcarbamoyl-phenyl)-amide]
179 to 180	CCC(=O)c1ccc2c(c1)C(C(=O)Nc1cccc(C(=O)Nc3ccccc3)c1)C(=O)N2CC (stereo not drawn) [Example 14, 1-Ethyl-2-oxo-5-propionyl-2,3-dihydro-1H-indole-3-carboxylic acid (3-phenylcarbamoyl-phenyl)-amide]
197 to 203	CC(=O)c1ccc2c(c1)C(C(=O)Nc1cccc(C(=O)Nc3ccccc3)c1)C(=O)N2CC(F)(F)F (stereo not drawn) [Example 16, 5-Acetyl-2-oxo-1-(2,2,2-trifluoro-ethyl)-2,3-dihydro-1H-indole-3-carboxylic acid (3-phenylcarbamoyl-phenyl)-amide]
108 to 110	O=C(N[C@@H](Cc1ccccc1)C(=O)N1CCOCC1)c1cc2cc(Cl)sc2[nH]1 [Example 19, 2-Chloro-6H-thieno[2,3-b]pyrrole-5-carboxylic acid [(1S)-benzyl-2-morpholin-4-yl-2-oxo-ethyl]-amide]

Source: patent US20030004162A1, “Use of glycogen phosphorylase inhibitors” (priority 2000, published 2003)
